One experiment concerns the target HIV-1 RT (Human immunodeficiency virus type 1 group M subtype B, UniProt P03366). Description: 3TCTP inhibition assay, M13 template, radiolabeled dCTP incorporation. To be noted: 1.0 μM 3TCTP; activity without drug set at 100%.
Experiment [1] has as its system PFV. To be noted: previous studies; cited from earlier work.
Experiment [2] relates to PFV. As to conditions: virus producing cells treated with inhibitor.
In experiment [3] the test system is PFV. The class given is cell-based, Prototype Foamy Virus (SFVcpz(hu)).

Each structure is given as a SMILES string.

Description for HIV-1 RT: The 3TCTP inhibition assays were performed using the M13 template and the −47 primer. The −47 sequencing primer was annealed to the single stranded M13mp18 DNA by heating to 95° C. and slowly cooling to room temperature. The template-primer was extended by adding 1.0 μg of RT in 25 mM Tris(pH 8.0), 75 mM KCl, 8.0 mM MgCl2, 100 μg/ml BSA, 10 mM CHAPS, 10 μM each of dATP, dGTP, and dTTP, 2.0 μM [α-^32P]dCTP, and the indicated concentrations of 3TCTP (Moravek Biochemicals, Brea, Calif.) in a 100 μl reaction volume. The mixture was incubated at 37° C. for 30 min, then halted by the addition of 3 ml of ice-cold trichloroacetic acid (TCA) and the precipitated DNA was collected by suction filtration through Whatman GF/C glass filters. The amount of incorporated radioactivity was determined by liquid scintillation counting.
Samples were TCA precipitated, bound to glass filters, and incorporation of radiolabeled dCTP was measured. […] These levels of RT activity in the absence of drug were set at 100% activity for each recombinant RT.

`Nc1ccn([C@@H]2CS[C@H](COP(=O)(O)OP(=O)(O)OP(=O)(O)O)O2)c(=O)n1` [3TCTP]: the “activity retained by HIV-1 RT” value at HIV-1 RT worked out at 37%.

`O=c1[nH]cnc2c1ncn2[C@H]1CC[C@@H](CO)O1` [ddI]: the “specific inhibition of production of infectious PFV particles” value (from here on “specific inhibition”) with PFV [1] is “not”.

In the case of `Cc1cn([C@H]2C[C@H](N=[N+]=[N-])[C@@H](CO)O2)c(=O)[nH]c1=O` [AZT], in the experiment with PFV [2], the “specific decrease in infectivity” value is given as “greater than 10 fold”. Moreover, the “specific inhibition” value with PFV [1] is on record as “specific inhibition was demonstrated”.

`Nc1nc(=O)n(C2CSC(CO)O2)cc1F` (stereo not drawn) [FTC, beta-2′,3′-dideoxy-5-fluoro-3′-thiacytidine]: in the experiment with PFV [3], the “Titer Relative to No-Drug Control, Pretreated” value was 122.

Regarding `Nc1ccn([C@@H]2CS[C@H](CO)O2)c(=O)n1` [3TC], the “specific inhibition” value in the experiment with PFV [1] is on record as “not”.
